Source: patent publication US7807686B2, “2-(4-oxo-4H-quinazolin-3-yl)acetamides and their use as vasopressin V3 antagonists” (N.V. Organon, priority 2005, dated 2010)

What was measured:
V3 receptor = target: T1, V3 receptor (Rattus norvegicus, UniProt P48974); test: Block of AVP-induced ACTH release from rat anterior pituitary corticotrophs; assay type: cell-based; conditions: inhibition of ACTH release induced by 3×10^-9 mol.L^-1 AVP, ELISA; read-out: V3 receptor antagonism in isolated rat anterior pituitary cells
T1 construct: Anterior pituitary corticotrophs were prepared from adult female Sprague-Dawley rats; from tissue; host or cells: primary anterior pituitary corticotrophs from adult female Sprague-Dawley rats
T1 sequence (P48974 1-425): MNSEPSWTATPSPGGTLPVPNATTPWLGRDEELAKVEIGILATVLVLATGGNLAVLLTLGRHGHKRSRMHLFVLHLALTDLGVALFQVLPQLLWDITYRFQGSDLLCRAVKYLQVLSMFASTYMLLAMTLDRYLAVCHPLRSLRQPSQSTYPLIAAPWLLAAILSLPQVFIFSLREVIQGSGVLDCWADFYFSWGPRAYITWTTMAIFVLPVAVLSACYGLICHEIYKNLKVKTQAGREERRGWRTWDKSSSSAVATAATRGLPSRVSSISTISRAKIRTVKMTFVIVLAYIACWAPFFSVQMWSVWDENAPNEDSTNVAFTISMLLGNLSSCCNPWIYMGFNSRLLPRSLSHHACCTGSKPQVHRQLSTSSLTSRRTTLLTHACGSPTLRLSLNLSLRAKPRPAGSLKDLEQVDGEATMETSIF
Method: The ability of compounds of the invention to act as V3 antagonists in a physiologically relevant system was determined by measuring their ability to block the release of adrenocorticotropic hormone (ACTH) from anterior pituitary corticotrophs in response to treatment with arginine vasopressin (AVP).
Anterior pituitary corticotrophs were prepared from adult female Sprague-Dawley rats and seeded into 48 well plates. The cells were cultured for 4 days prior to exposure to compound. Test compounds were prepared at […] in 100% DMSO. Cells were exposed to a dose response of test compounds for 20 minutes (10^−8 mol.L^−1-10^−5 mol.L^−1). The final concentration of DMSO in the assay was kept constant at 0.3%. The cells were then exposed to 3×10^−9 mol.L^−1 AVP for 120 minutes. Supernatants were harvested and stored at −20° C. ACTH levels were subsequently measured by ELISA following the manufacturer's instructions (Immunodiagnostic systems, UK (Cat No. DX-SDX018)). Each treatment was carried out in quadruplicate and a mean value obtained for the amount of ACTH released. The degree of antagonism was then calculated as a percentage of the amount of ACTH released by agonist alone after adjustment for basal levels of ACTH. A pIC50 was calculated by fitting a Sigmoidal dose response (variable slope) curve with a non-linear (fit) to the data using the software package GraphPad prism. […]

Row | IC50 (V3 receptor) [nM] | melting point [°C] | Compound
1 | 10 to 100 | – | COc1cccc(-c2nc3ccc(OCCCN4CCCCC4)cc3c(=O)n2CC(=O)NC(C)C)c1 [EXAMPLE 2h, N-Isopropyl-2-[2-(3-methoxyphenyl)-4-oxo-6-(3-piperidin-1-ylpropoxy)-4H-quinazolin-3-yl]acetamide]
2 | 100 to 1000 | – | COc1cccc(-c2nc3ccc(-c4cccc(CN(C)C)c4)cc3c(=O)n2CC(=O)NC(C)C)c1 [EXAMPLE 7k, 2-[6-(3-Dimethylaminomethylphenyl)-2-(3-methoxyphenyl)-4-oxo-4H-quinazolin-3-yl]-N-isopropylacetamide]
3 | – | 161 to 163 | CCN(CC)C[C@H](C)COc1ccc2nc(-c3cccc(OC)c3)n(CC(=O)NC(C)C)c(=O)c2c1 [Example 4a, (S)-(+)-2-[6-(3-Diethylamino-2-methylpropoxy)-2-(3-methoxyphenyl)-4-oxo-4H-quinazolin-3-yl]-N-isopropylacetamide]
